Measurements from the supplement of paper PMC4862054.

What was measured:
Conditions in all cases: incubation time: 72 h
BT-474 [1] = test: normalised response (% of control), CellTox Green; higher = less cell death (100 = DMSO, 0 = benzethonium chloride kill control)
Outline: (§1)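 Breast cancer cell lines in 20 µl suspension were added to 384-well plates containing compound at 5 concentrations, spaced in 10-fold steps across a 10,000-fold range chosen for each compound, and incubated for 72 h. CellTox Green fluorescence was read at 485/520 nm, followed by CellTiter-Glo luminescence after 10 min at room temperature. Signals on each plate were normalised so that 0.1 % DMSO equals 100 and a positive kill control equals 0. Every value in the table is the normalised signal at one concentration of the series.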

BT-549 [2] = test: as above
Outline: as §1

CAL-120 [3] = test: as above
Outline: as §1

CAL-148 [4] = test: as above
Outline: as §1

CAL-51 [5] = test: as above
Outline: as §1

CAL-85-1 [6] = test: as above
Outline: as §1

DU-4475 [7] = test: as above
Outline: as §1

HCC1143 [8] = test: as above
Outline: as §1

HCC1599 [9] = test: as above
Outline: as §1

HCC1937 [10] = test: as above
Outline: as §1

HDQ-P1 [11] = test: as above
Outline: as §1

Hs578T [12] = test: as above
Outline: as §1

MCF-10A [13] = test: as above
Outline: as §1

MDA-MB-231 [14] = test: as above
Outline: as §1

MDA-MB-436 [15] = test: as above
Outline: as §1

MDA-MB-453 [16] = test: as above
Outline: as §1

MDA-MB-468 [17] = test: as above
Outline: as §1

MFM-223 [18] = test: as above
Outline: as §1

BT-474 [19] = test: normalised response (% of control), CellTiter-Glo; higher = more viable cells (100 = DMSO, 0 = benzethonium chloride kill control)
Outline: as §1

BT-549 [20] = test: as above
Outline: as §1

CAL-120 [21] = test: as above
Outline: as §1

CAL-148 [22] = test: as above
Outline: as §1

CAL-51 [23] = test: as above
Outline: as §1

CAL-85-1 [24] = test: as above
Outline: as §1

DU-4475 [25] = test: as above
Outline: as §1

HCC1143 [26] = test: as above
Outline: as §1

HCC1599 [27] = test: as above
Outline: as §1

HCC1937 [28] = test: as above
Outline: as §1

HDQ-P1 [29] = test: as above
Outline: as §1

Hs578T [30] = test: as above
Outline: as §1

MCF-10A [31] = test: as above
Outline: as §1

MDA-MB-231 [32] = test: as above
Outline: as §1

MDA-MB-436 [33] = test: as above
Outline: as §1

MDA-MB-453 [34] = test: as above
Outline: as §1

MDA-MB-468 [35] = test: as above
Outline: as §1

MFM-223 [36] = test: as above
Outline: as §1

SK-BR-3 = test: as above
Outline: as §1

Row | SMILES | normalised response (BT-474 [1]) [%] | normalised response (BT-549 [2]) [%] | normalised response (CAL-120 [3]) [%] | normalised response (CAL-148 [4]) [%] | normalised response (CAL-51 [5]) [%] | normalised response (CAL-85-1 [6]) [%] | normalised response (DU-4475 [7]) [%] | normalised response (HCC1143 [8]) [%] | normalised response (HCC1599 [9]) [%] | normalised response (HCC1937 [10]) [%] | normalised response (HDQ-P1 [11]) [%] | normalised response (Hs578T [12]) [%] | normalised response (MCF-10A [13]) [%] | normalised response (MDA-MB-231 [14]) [%] | normalised response (MDA-MB-436 [15]) [%] | normalised response (MDA-MB-453 [16]) [%] | normalised response (MDA-MB-468 [17]) [%] | normalised response (MFM-223 [18]) [%] | normalised response (BT-474 [19]) [%] | normalised response (BT-549 [20]) [%] | normalised response (CAL-120 [21]) [%] | normalised response (CAL-148 [22]) [%] | normalised response (CAL-51 [23]) [%] | normalised response (CAL-85-1 [24]) [%] | normalised response (DU-4475 [25]) [%] | normalised response (HCC1143 [26]) [%] | normalised response (HCC1599 [27]) [%] | normalised response (HCC1937 [28]) [%] | normalised response (HDQ-P1 [29]) [%] | normalised response (Hs578T [30]) [%] | normalised response (MCF-10A [31]) [%] | normalised response (MDA-MB-231 [32]) [%] | normalised response (MDA-MB-436 [33]) [%] | normalised response (MDA-MB-453 [34]) [%] | normalised response (MDA-MB-468 [35]) [%] | normalised response (MFM-223 [36]) [%] | normalised response (SK-BR-3) [%]
1 | O=C(O)C1(C(=O)O)CCC1.[NH2-].[NH2-].[Pt+2] [Carboplatin] (1000 nM) | 97.7 | 62 | 104 | 105 | 106 | 117 | 107 | 101 | 104 | 113 | 100 | 103 | 115 | 106 | 95.4 | 111 | 143 | 89.6 | 100 | 94.2 | 95.3 | 96.5 | 108 | 95.7 | 93.9 | 101 | 96.4 | 95 | 95.4 | 95.1 | 105 | 94.4 | 98.3 | 97.6 | 100 | 101 | 103
2 | O=C(/C=C/c1cccnc1)NCCCCC1CCN(C(=O)c2ccccc2)CC1 [Daporinad] (100 nM) | 98.6 | 105 | 91.2 | 95 | 105 | 101 | 98.8 | 104 | 78.1 | 27.6 | 103 | 20 | 98.1 | 112 | 103 | 104 | 125 | 70.9 | 28.7 | 100 | 17 | 69 | 102 | 16 | 4.65 | 14.3 | 0.54 | 21.3 | 19.1 | 8.08 | 11.1 | 25.8 | 54 | 14.3 | 0.85 | 4.38 | 107
3 | O=C(Cc1ccc(-c2ccc(OCCN3CCOCC3)cc2)cn1)NCc1ccccc1 [KX2-391] (1000 nM) | 80.8 | 76.7 | 90.4 | 74.2 | 30.9 | 68.1 | 101 | 113 | 71.9 | 115 | 99.8 | 38.4 | 38.9 | -59.4 | 83.1 | 49.9 | 23.4 | 44.2 | 52.5 | 43.6 | 59.4 | 41.4 | 19.3 | 45.3 | 45.6 | 61.5 | 14.8 | 72.8 | 70.8 | 19.7 | 75.2 | 46.6 | 25.2 | 72 | 33.4 | 44.9 | 14.9
4 | N#Cc1ccc(C(c2ccc(C#N)cc2)n2cncn2)cc1 [Letrozole] (1000 nM) | 100 | 89.6 | 103 | 101 | 98.2 | 105 | 100 | 101 | 85.3 | 67.6 | 102 | 106 | 114 | 98.9 | 87.6 | 96.4 | 75.9 | 88.4 | 94.4 | 103 | 99 | 94.7 | 80.8 | 98.8 | 98.8 | 108 | 104 | 103 | 102 | 97.1 | 101 | 96.5 | 105 | 99.3 | 103 | 100 | 99.5
5 | C=CCc1cccc(/C=N/NC(=O)CN2CCN(Cc3ccccc3)CC2)c1O [PAC-1] (1000 nM) | 98.8 | 61.6 | 102 | 104 | 73.1 | 105 | 101 | 119 | 98.4 | 92.5 | 112 | 104 | 112 | 107 | 89.7 | 106 | 128 | 102 | 97.9 | 75.1 | 97.5 | 101 | 67.2 | 98.5 | 102 | 103 | 120 | 92.7 | 93.3 | 103 | 116 | 96.8 | 86 | 93.6 | 101 | 100 | 109
6 | Nc1nc2[nH]cc(CCc3ccc(C(=O)N[C@@H](CCC(=O)O)C(=O)O)cc3)c2c(=O)[nH]1 [Pemetrexed] (1000 nM) | 99.5 | 82.9 | 100 | 89.9 | 98.2 | 105 | 98.2 | 115 | 92 | 112 | 110 | 101 | 103 | 88 | 108 | 106 | 122 | 103 | 54.4 | 97.1 | 88.1 | 95.7 | 90.6 | 54.5 | 89.5 | 93.3 | 67.4 | 70.3 | 83.2 | 17.1 | 97.6 | 65.6 | 80.7 | 92.2 | 90 | 91.5 | 68.2
7 | CC[C@H](C)C(=O)O[C@H]1C[C@H](O)C=C2C=C[C@H](C)[C@H](CC[C@@H](O)C[C@@H](O)CC(=O)O)[C@H]21 [Pravastatin] (1000 nM) | 99.3 | 85.2 | 100 | 99.8 | 87.6 | 93.4 | 99 | 59 | 95.4 | 95.4 | 112 | 95.2 | 108 | 85.4 | -66.6 | 105 | 134 | 98.5 | 85.8 | 96.3 | 95.3 | 87.6 | 54.5 | 95.5 | 82.1 | 94.3 | 70.8 | 86.9 | 92.2 | 98.4 | 96.1 | 89.9 | 18.9 | 87.7 | 89.9 | 85.5 | 86.2
8 | COc1cc([C@@H]2c3cc4c(cc3[C@@H](O[C@@H]3O[C@@H]5CO[C@@H](c6cccs6)O[C@H]5[C@H](O)[C@H]3O)[C@H]3COC(=O)[C@H]23)OCO4)cc(OC)c1O [Teniposide] (1000 nM) | 99.1 | 78.4 | 88.1 | 21.2 | 51.4 | 91 | 75 | -28.9 | 75.5 | 92.2 | 102 | 98.2 | 75.1 | 61.2 | 90.5 | 111 | 94.5 | 69.6 | 47.6 | 36.5 | 72.4 | 33.3 | 47.8 | 55.3 | 17.3 | 47.8 | 19.6 | 72.4 | 84.1 | 76.3 | 82.8 | 66 | 36.6 | 160 | 41.9 | 82.4 | 19.1
9 | CC(=O)Nc1cccc(-n2c(=O)n(C3CC3)c(=O)c3c(Nc4ccc(I)cc4F)n(C)c(=O)c(C)c32)c1 [Trametinib] (25 nM) | 102 | 93.6 | 87.6 | 108 | 113 | 66.6 | 64.6 | 116 | 105 | 124 | 92.3 | 113 | 81.3 | 66.4 | 97.2 | 111 | 103 | 101 | 73.5 | 107 | 71.7 | 90.7 | 105 | 68.9 | 0.42 | 72.5 | 101 | 81.3 | 61.2 | 83.2 | 35.7 | 72.1 | 91.2 | 111 | 88.7 | 94.6 | 102
